Results on 24 compounds are retold here after patent US20090291938A1 (TAKEDA PHARMACEUTICAL COMPANY LIMITED, priority 2007, published 2009).

The assay relates to HT29 human colorectal adenocarcinoma cell line. Put plainly: cell proliferation assay (Cell Titer-Glo luminescent cell viability assay). The assay is classed as cell-based. Particulars: HT-29, cell proliferative assay, HT29 cells, 72 hr treatment, values given as ranges, read-out: pIC50 (converted). The method, then:
The cell culture and proliferation assay may be carried out as follows: the HT29 human colorectal adenocarcinoma cell line (ATCC, USA) was maintained in Dulbecco's Modified Eagle's Medium (Invitrogen, USA) supplemented with 10% fetal bovine serum (JRH, USA). The cell proliferation assay was carried out with the Cell Titer-Glo luminescent cell viability assay (Promega, USA) according to the manufacture's instruction after the 72 hr treatment of the cells in the presence of the compounds. The cell viability was shown as a percentage of DMSO treated cells.

Regarding `C=CCC1CN(C2CCCCC2)c2nc(Nc3ccc(C(=O)N[C@H]4CCCN(C)C4)cc3OC)ncc2N(C)C1=O` (stereo partly drawn) [Compound 227, 4-(7-allyl-9-cyclohexyl-5-methyl-6-oxo-6,7,8,9-tetrahydro-5H-pyrimido[4,5-b][1,4]diazepin-2-ylamino)-3-methoxy-N-((S)-1-methylpiperidin-3-yl)benzamide], the IC50 was greater than 10 nM.

Consider `COc1cc(C(=O)N[C@H]2CCCNC2)ccc1Nc1ncc2c(n1)N(C1CCCCC1)CC1(CC1)C(=O)N2C` [Compound 174, (S)-4-(9′-cyclohexyl-5′-methyl-6′-oxo-5′,6′,8′,9′-tetrahydrospiro[cyclopropane-1,7′-pyrimido[4,5-b][1,4]diazepine]-2′-ylamino)-3-methoxy-N-(piperidin-3-yl)benzamide], for which the IC50 is 1 to 2.51 nM.

`C=CC[C@H]1CN(C2CCCC2)c2nc(Nc3ccc(C(=O)NC4CN(C)C4)cc3OC)ncc2N(C)C1=O` [Compound 196, (S)-4-(7-allyl-9-cyclopentyl-5-methyl-6-oxo-6,7,8,9-tetrahydro-5H-pyrimido[4,5-b][1,4]diazepin-2-ylamino)-3-methoxy-N-(1-methylazetidin-3-yl)benzamide]: the IC50 was less than 1 nM.

On to `C=CC[C@H]1CN(C2CCCC2)c2nc(Nc3ccc(C(=O)N[C@H]4CC[C@H](O)CC4)cc3OC)ncc2N(C)C1=O` [Compound 197, 4-((S)-7-allyl-9-cyclopentyl-5-methyl-6-oxo-6,7,8,9-tetrahydro-5H-pyrimido[4,5-b][1,4]diazepin-2-ylamino)-N-((1R,4R)-4-hydroxycyclohexyl)-3-methoxybenzamide], for which the IC50 is less than 1 nM.

On to `CCC#CCC1CN(C2CCCC2)c2nc(Nc3ccc(C(=O)NC4CCN(C)CC4)cc3OC)ncc2N(C)C1=O` (stereo not drawn) [Compound 219, 4-(9-cyclopentyl-5-methyl-6-oxo-7-(pent-2-ynyl)-6,7,8,9-tetrahydro-5H-pyrimido[4,5-b][1,4]diazepin-2-ylamino)-3-methoxy-N-(1-methylpiperidin-4-yl)benzamide], for which the IC50 was 3.16 to 10 nM.

With `C=CCC1(C)CN(C2CCCC2)c2nc(Nc3ccc(C(=O)NC4CCN(C)CC4)cc3OC)ncc2N(C)C1=O` (stereo not drawn) [Compound 221, 4-(7-allyl-9-cyclopentyl-5,7-dimethyl-6-oxo-6,7,8,9-tetrahydro-5H-pyrimido[4,5-b][1,4]diazepin-2-ylamino)-3-methoxy-N-(1-methylpiperidin-4-yl)benzamide], the IC50 was 1 to 2.51 nM.

Take `COc1cc(C(=O)N[C@H]2CC[C@H](O)CC2)ccc1Nc1ncc2c(n1)N(C1CCCC1)CC(C)(C)C(=O)N2C` [Compound 103, 4-(9-cyclopentyl-5,7,7-trimethyl-6-oxo-6,7,8,9-tetrahydro-5H-pyrimido[4,5-b][1,4]diazepin-2-ylamino)-N-((1R,4R)-4-hydroxycyclohexyl)-3-methoxybenzamide]: the IC50 is 1 to 2.51 nM.

Consider `COc1cc(C(=O)N[C@@H]2CCCNC2)ccc1Nc1ncc2c(n1)N(C1CCCC1)CC1(CCC1)C(=O)N2C` [Compound 181, (R)-4-(9′-cyclopentyl-5′-methyl-6′-oxo-5′,6′,8′,9′-tetrahydrospiro[cyclobutane-1,7′-pyrimido[4,5-b][1,4]diazepine]-2′-ylamino)-3-methoxy-N-(piperidin-3-yl)benzamide], for which the IC50 was 3.16 to 10 nM.

Consider `C=CCC1CN(C2CCCCC2)c2nc(Nc3ccc(C(=O)N[C@@H]4CCN(C)C4)cc3OC)ncc2N(C)C1=O` (stereo partly drawn) [Compound 230, 4-(7-allyl-9-cyclohexyl-5-methyl-6-oxo-6,7,8,9-tetrahydro-5H-pyrimido[4,5-b][1,4]diazepin-2-ylamino)-3-methoxy-N-((R)-1-methylpyrrolidin-3-yl)benzamide], for which the IC50 is greater than 10 nM.

Take `COc1cc(C(=O)NCCN2CCCC2)ccc1Nc1ncc2c(n1)N(C1CCCC1)CC(C)(C)C(=O)N2C` [Compound 93, 4-(9-cyclopentyl-5,7,7-trimethyl-6-oxo-6,7,8,9-tetrahydro-5H-pyrimido[4,5-b][1,4]diazepin-2-ylamino)-3-methoxy-N-(2-(pyrrolidin-1-yl)ethyl)benzamide]: the IC50 was 3.16 to 10 nM.

Take `COc1cc(C(=O)NN2CCOCC2)ccc1Nc1ncc2c(n1)N(C1CCCC1)CC(C)(C)C(=O)N2C` [Compound 104, 4-(9-cyclopentyl-5,7,7-trimethyl-6-oxo-6,7,8,9-tetrahydro-5H-pyrimido[4,5-b][1,4]diazepin-2-ylamino)-3-methoxy-N-morpholinobenzamide]: the IC50 is less than 1 nM.

In the case of `C=CC1(C)CN(C2CCCC2)c2nc(Nc3ccc(C(=O)N[C@@H]4CCCNC4)cc3OC)ncc2N(C)C1=O` (stereo partly drawn) [Compound 245, 4-(9-cyclopentyl-5,7-dimethyl-6-oxo-7-vinyl-6,7,8,9-tetrahydro-5H-pyrimido[4,5-b][1,4]diazepin-2-ylamino)-3-methoxy-N-((R)-piperidin-3-yl)benzamide], the IC50 is 3.16 to 10 nM.

`C/C=C\CC1CN(C2CCCC2)c2nc(Nc3ccc(C(=O)NC4CCN(C)CC4)cc3OC)ncc2N(C)C1=O` (stereo not drawn) [Compound 218, (Z)-4-(7-(but-2-enyl)-9-cyclopentyl-5-methyl-6-oxo-6,7,8,9-tetrahydro-5H-pyrimido[4,5-b][1,4]diazepin-2-ylamino)-3-methoxy-N-(1-methylpiperidin-4-yl)benzamide]: the IC50 is less than 1 nM.

In the case of `COc1cc(C(=O)NC2CCN(S(C)(=O)=O)CC2)ccc1Nc1ncc2c(n1)N(C1CCCC1)CC(C)(C)C(=O)N2C` [Compound 91, 4-(9-cyclopentyl-5,7,7-trimethyl-6-oxo-6,7,8,9-tetrahydro-5H-pyrimido[4,5-b][1,4]diazepin-2-ylamino)-3-methoxy-N-(1-(methylsulfonyl)piperidin-4-yl)benzamide], the IC50 is 1 to 2.51 nM.

Turning to `C=CCC1CN(C2CCCCC2)c2nc(Nc3ccc(C(=O)NN4CCN(C)CC4)cc3OC)ncc2N(C)C1=O` (stereo not drawn) [Compound 226, 4-(7-allyl-9-cyclohexyl-5-methyl-6-oxo-6,7,8,9-tetrahydro-5H-pyrimido[4,5-b][1,4]diazepin-2-ylamino)-3-methoxy-N-(4-methylpiperazin-1-yl)benzamide], the IC50 was 1 to 2.51 nM.

`C=CCC1CN(C2CCCCC2)c2nc(Nc3ccc(C(=O)NC4CN(C)C4)cc3OC)ncc2N(C)C1=O` (stereo not drawn) [Compound 225, 4-(7-allyl-9-cyclohexyl-5-methyl-6-oxo-6,7,8,9-tetrahydro-5H-pyrimido[4,5-b][1,4]diazepin-2-ylamino)-3-methoxy-N-(1-methylazetidin-3-yl)benzamide]: the IC50 is 3.16 to 10 nM.

Consider `C=C[C@@]1(C)CN(C2CCCC2)c2nc(Nc3ccc(C(=O)NN4CCN(C)CC4)cc3OC)ncc2N(C)C1=O` [Compound 244, (S)-4-(9-cyclopentyl-5,7-dimethyl-6-oxo-7-vinyl-6,7,8,9-tetrahydro-5H-pyrimido[4,5-b][1,4]diazepin-2-ylamino)-3-methoxy-N-(4-methylpiperazin-1-yl)benzamide], for which the IC50 was greater than 10 nM.

As to `COc1cc(C(=O)NC2CN(C)C2)ccc1Nc1ncc2c(n1)N(C1CCCC1)CC(C)(C)C(=O)N2C` [Compound 95, 4-(9-cyclopentyl-5,7,7-trimethyl-6-oxo-6,7,8,9-tetrahydro-5H-pyrimido[4,5-b][1,4]diazepin-2-ylamino)-3-methoxy-N-(1-methylazetidin-3-yl)benzamide], the IC50 is 1 to 2.51 nM.

Take `COc1cc(C(=O)NN2CCN(C3CCCC3)CC2)ccc1Nc1ncc2c(n1)N(C1CCCCC1)CC(C)(C)C(=O)N2C` [Compound 117, 4-(9-cyclohexyl-5,7,7-trimethyl-6-oxo-6,7,8,9-tetrahydro-5H-pyrimido[4,5-b][1,4]diazepin-2-ylamino)-N-(4-cyclopentylpiperazin-1-yl)-3-methoxybenzamide]: the IC50 is 3.16 to 10 nM.

In the case of `COc1cc(C(=O)NN2CCN(CCO)CC2)ccc1Nc1ncc2c(n1)N(C1CCCC1)CC(C)(C)C(=O)N2C` [Compound 105, 4-(9-cyclopentyl-5,7,7-trimethyl-6-oxo-6,7,8,9-tetrahydro-5H-pyrimido[4,5-b][1,4]diazepin-2-ylamino)-N-(4-(2-hydroxyethyl)piperazin-1-yl)-3-methoxybenzamide], the IC50 is 1 to 2.51 nM.

Regarding `COc1cc(C(=O)N[C@@H]2CCCN(C)C2)ccc1Nc1ncc2c(n1)N(C1CCCCC1)CC1(CC1)C(=O)N2C` [Compound 172, (R)-4-(9′-cyclohexyl-5′-methyl-6′-oxo-5′,6′,8′,9′-tetrahydrospiro[cyclopropane-1,7′-pyrimido[4,5-b][1,4]diazepine]-2′-ylamino)-3-methoxy-N-(1-methylpiperidin-3-yl)benzamide], the IC50 is 1 to 2.51 nM.

Turning to `COc1cc(C(=O)N[C@H]2CCCN(C)C2)ccc1Nc1ncc2c(n1)N(C1CCCC1)CC1(CC1)C(=O)N2C` [Compound 164, (S)-4-(9′-cyclopentyl-5′-methyl-6′-oxo-5′,6′,8′,9′-tetrahydrospiro-[cyclopropane-1,7′-pyrimido[4,5-b][1,4]diazepine]-2′-ylamino)-3-methoxy-N-(1-methylpiperidin-3-yl)benzamide], the IC50 is 1 to 2.51 nM.

With `CCC1(C)CN(C2CCCCC2)c2nc(Nc3ccc(C(=O)N[C@H]4CC[C@H](O)CC4)cc3OC)ncc2N(C)C1=O` (stereo partly drawn) [Compound 141, 4-(9-cyclohexyl-7-ethyl-5,7-dimethyl-6-oxo-6,7,8,9-tetrahydro-5H-pyrimido[4,5-b][1,4]diazepin-2-ylamino)-N-((1R,4R)-4-hydroxycyclohexyl)-3-methoxybenzamide], the IC50 is 3.16 to 10 nM.

With `COc1cc(C(=O)NC2CC(C)(C)N(C)C(C)(C)C2)ccc1Nc1ncc2c(n1)N(C1CCCC1)CCC(=O)N2C` [Compound 80, 4-(9-cyclopentyl-5-methyl-6-oxo-6,7,8,9-tetrahydro-5H-pyrimido[4,5-b][1,4]diazepin-2-ylamino)-3-methoxy-N-(1,2,2,6,6-pentamethylpiperidin-4-yl)benzamide], the IC50 was 3.16 to 10 nM.
